These results are taken from patent US20050271723A1, “Dosage forms for treatment of benign prostatic hyperplasia” (Threshold Pharmaceuticals, Inc., priority 2003, published 2005).

The test system of data set [1] is human prostate epithelial cells. Nature of the data set: Apoptosis assay in primary cultures of human prostate epithelial cells. The data set is classed as cell-based. The protocol: (§1) Primary Cell Cultures: Primary cultures of human prostate epithelial cells (Cambrex No. CC-2555) and human prostate stromal cells (Cambrex No. CC-2508) were obtained from Cambrex Bio Science Rockland, Inc. (191 Thomaston Street, Rockland, Me. 04841). Apoptosis Assay: […] Lonidamine was added into each well at different concentrations, and then incubated for 6 h at 37° C. To assess the caspase 3 activity, the homogeneous buffer and caspase 3 substrate (Promega No G7791; Promega Corporation, 2800 Woods Hollow Road, Madison Wis. USA 53711) were added into each well in the presence or absence of caspase 3 inhibitor (Promega No G5961). The fluorescence intensity of cleaved substrate was determined using a fluorescence plate reader at excitation 485 nm and emission 530 nm.

In data set [2] the test system is HIF-1α. Nature of the data set: HIF-1α expression in PC3 cells (immunoblot of nuclear and whole cell extracts). The data set is classed as cell-based, human. The settings on record: normoxic and hypoxic conditions, 4 hours, dose-dependent. The source says:
(§2) See Franklin et al; 1995. […] 20108 USA. Methods: […]
On the technique in general: Immunoblotting shows a protein as a band on a membrane.

For data set [3], the system named is HIF-1α. Kind of data set: HIF-1α expression in LNCaP cells (immunoblot of nuclear and whole cell extracts). The settings on record: hypoxic conditions (oxygen level <0.1%). The data set is classed as cell-based, human.
From the text: as §2

The subject of data set [4] is actin, caspase 3, NF-κB, IκBα. Nature of the data set: Protein levels of actin, caspase 3, NF-κB, IκBα in prostate cell lines (immunoblot). The data set is classed as cell-based, human. Particulars: except at 800 μM concentration.
Experimental: Methods: Cells were plated at a density of 5×10^5 cells into a dish, and then maintained in 37° C. incubator (5% CO2) for 2 days. Prior to the assay, cells were rinsed twice with pre-warmed (37° C.) RPMI-1640 Medium (ATCC No. 30-2001; 10 mM HEPES; 1 mM sodium pyruvate; 2 mM L-glutamine; 4500 mg glucose/L; 1500 mg sodium bicarbonate/L). Cells were incubated with 2 ml culture medium in the absence or presence of lonidamine at different concentrations for 4 hours at 37° C. either under normoxia or hypoxia (oxygen level<0.1%). At the end of the incubation, the dish was placed on ice, and the cells were washed rapidly twice with cold PBS buffer (4° C.). For nuclear extracts, cells were lysed with buffer A (10 mM Tris, pH7.5; 1.5 mM MgCl2; 10 mM KCl and protease inhibitors and buffer C (0.5 M NaCl; 20 mM Tris pH7.5; 1.5 mM MgCl2; 20% glycerol and protease inhibitors), sequentially. The protease inhibitors used in the experiments were a cocktail of five protease inhibitors (500 mM AEBSF-HCl, 1 mg/ml Aprotinin, 1 mM E-64, 500 mM EDTA and 1 mM Leupeptin; Calbiochem NO 539131). For whole cell lysate, cells were lysed with 150 mM NaCl; 10 mM Tris ph7.5; 10 mM EDTA; 1% Triton X-100; 0.5% Deoxycholate, and protease inhibitors. The protein concentration was measured using a Bio-Rad protein assay. Equal amounts of protein were loaded on a SDS-PAGE gel. […]
In data set [5] the test system is human prostate stromal cells. Nature of the data set: Apoptosis assay in primary cultures of human prostate stromal cells. It is filed as cell-based. The settings on record: 6 h. As for the experimental part: as §1
The conditions of data set [6]: higher doses of lonidamine; usually mild; cited from earlier work.
The subject of another data set is LNCaP cells. Kind of data set: Apoptosis assay (caspase 3 activity) in LNCaP cells. The data set is classed as cell-based, human. The settings on record: citrate-producing cells, 6 h. The protocol: as §1, with “Immunoblotting: Immunoblotting was carried out as described in Example 2. […]” for “Primary Cell Cultures: Primary cultures of human prostate epithelial cells (Cambrex No. CC-2555) and human prostate stromal cells (Cambrex No. CC-2508) were obtained from Cambrex Bio Science Rockland, Inc. (191 Thomaston Street, Rockland, Me. 04841).”

A further data set relates to PC3 cells. Nature of the data set: Apoptosis assay (caspase 3 activity) in PC3 cells. The data set is classed as cell-based, human. The settings on record: PC3, citrate-oxidizing cells; 6 h. As for the experimental part:
as §1, with “Immunoblotting: Immunoblotting was carried out as described in Example 2. […]” for “Primary Cell Cultures: Primary cultures of human prostate epithelial cells (Cambrex No. CC-2555) and human prostate stromal cells (Cambrex No. CC-2508) were obtained from Cambrex Bio Science Rockland, Inc. (191 Thomaston Street, Rockland, Me. 04841).”

“Also recorded” adds a separate entry of the source.

For `O=C(O)c1nn(Cc2ccc(Cl)cc2Cl)c2ccccc12` [lonidamine, 1-(2,4-dichlorobenzyl)-1H-indazole-3-carboxylic acid], the “induction of apoptosis, epithelial compared with stromal cells” value in data set [1] (primary cultures) is “significantly greater in primary cultures of prostate epithelial cells”. The induction of apoptosis result in data set [1] (primary prostate epithelial cells, 6 h) was “induced apoptosis only in prostate epithelial cells in a dose-dependent manner; also recorded: induces apoptosis”; in data set [5] it was “induction of apoptosis was not observed”. Moreover, the “level of HIF-1α protein in nuclear and whole-cell extracts” value with HIF-1α [2] is listed as “reduced the level of HIF-1α protein”. In the data set with HIF-1α [3], the “effect on HIF-1α expression, LNCaP compared with PC3 cells” value is given as “more pronounced in LNCaP cells than in PC3 cells”. For the same molecule, in data set [4], the “inhibition of protein levels of actin, caspase 3, NF-κB, or IκBα” value was “no detectable inhibition”. In addition, the side effects result in data set [6] was “myalgia and testicular pain”. The “activation of caspase 3 (apoptosis)” value in the data set on LNCaP cells is on record as “induced activation of caspase 3”. The “activation of caspase 3 (apoptosis), LNCaP compared with PC3 cells” value with PC3 cells is on record as “significantly greater in LNCaP cells”.
